For 16 compounds, inhibition results are on record in US20230157996A1, “SMALL-MOLECULE INHIBITOR TARGETING EB VIRUS NUCLEAR ANTIGEN PROTEIN, PREPARATION METHOD AND USE THEREOF” (priority 2020, published 2023).

This assay concerns C666-1 cells. Kind of assay: C666-1 cell viability single concentration (50 μM) inhibition rate (Resazurin). The assay is classed as cell-based. The settings on record: Homo sapiens, C6661, 72 h, 50 μM compound, 72 hours, C666-1 cells; read-out: C666-1 cell viability single concentration (50 μM) inhibition rate, Ratio* (Inh %). The method, boiled down:
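EBV-positive C666-1 cells (5×10^3/well), pre-cultured 24 h, were exposed to compound at 50 μmol/L final for 72 h at 37° C, 5% CO2, in duplicate. Viability by resazurin (3 h, ex 560/em 590 nm); inhibition rate computed relative to DMSO control and medium-only blank.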

Consider `O=C(NC1CN(c2cccc(C(=O)O)c2-n2cccc2)C1)c1ccccc1[N+](=O)[O-]` [Example 181, 3-(3-(2-nitrobenzamido)azetidin-1-yl)-2-(1H-pyrrol-1-yl)benzoic acid], for which the inhibition at 50 µM was below 10%.
Under `COC(=O)c1cccc(N2CC(NS(=O)(=O)C3CC3)C2)c1-n1cccc1` [Example 182, Methyl 3-(3-(cyclopropylsulfonamido)azetidin-1-yl)-2-(1H-pyrrol-1-yl)benzoate] stands 10 to 30%; under `O=C(O)c1cccc(N2CC(NS(=O)(=O)C3CC3)C2)c1-n1cccc1` [Example 183, 3-(3-(cyclopropylsulfonamido)azetidin-1-yl)-2-(1H-pyrrol-1-yl)benzoic acid], below 10%; under `COC(=O)c1cccc(N2CC(N(Cc3ccccc3)S(=O)(=O)c3ccc(C)cc3)C2)c1-n1cccc1` [Example 184, Methyl 3-(3-((N-benzyl-4-methylphenyl)sulfonamido)azetidin-1-yl)-2-(1H-pyrrol-1-yl)benzoate], below 10%.
With `Cc1ccc(S(=O)(=O)N(Cc2ccccc2)C2CN(c3cccc(C(=O)O)c3-n3cccc3)C2)cc1` [Example 185, 3-(3-((N-benzyl-4-methylphenyl)sulfonamido)azetidin-1-yl)-2-(1H-pyrrol-1-yl) benzoic acid], the inhibition at 50 µM was below 10%.
Turning to `O=C(O)c1cccc(-c2cn(-c3ccc(CO)cc3)nn2)c1-c1ccc2cc[nH]c2c1` [Example 186, 3-(1-(4-(hydroxymethyl)phenyl)-1H-1,2,3-triazol-4-yl)-2-(1H-indol-6-yl)benzoic acid], the inhibition at 50 µM was below 10%.
In the case of `COC(=O)c1cccc(N2CC(Oc3ccc(O)cc3)C2)c1-n1cccc1` [Example 187, Methyl 3-(3-(4-hydroxylphenoxy)azetidin-1-yl)-2-(1H-pyrrol-1-yl)benzoate], the inhibition at 50 µM was below 10%.
Consider `O=C(O)c1cccc(N2CC(Oc3ccc(O)cc3)C2)c1-n1cccc1` [Example 188, 3-(3-(4-hydroxylphenoxy)azetidin-1-yl)-2-(1H-pyrrol-1-yl)benzoic acid], for which the inhibition at 50 µM was below 10%.
Regarding `COC(=O)c1cccc(N2CC(Sc3ccc(C)cc3)C2)c1-n1cccc1` [Example 190, Methyl 2-(1H-pyrrol-1-yl)-3-(3-(p-tolylthio)azetidin-1-yl)benzoate], the inhibition at 50 µM was below 10%.
Take `COC(=O)c1cccc(N2CC([S+]([O-])c3ccc(C)cc3)C2)c1-n1cccc1` (stereo not shown) [Example 191, Methyl 2-(1H-pyrrol-1-yl)-3-(3-(p-tolylsulfinyl)azetidin-1-yl)benzoate]: the inhibition at 50 µM lay within 10 to 30%.
As to `COC(=O)c1cccc(N2CC(S(=O)(=O)c3ccc(C)cc3)C2)c1-n1cccc1` [Example 192, Methyl 2-(1H-pyrrol-1-yl)-3-(3-(p-tolylsulfonyl)azetidin-1-yl)benzoate], the inhibition at 50 µM was 10 to 30%.
For `Cc1ccc([S+]([O-])C2CN(c3cccc(C(=O)O)c3-n3cccc3)C2)cc1` (stereo not shown) [Example 193], the inhibition at 50 µM is below 10%.
With `COC(=O)c1cccc(N2CC(Oc3ccc(Oc4ccc(Cl)cc4)cc3)C2)c1-n1cccc1` [Example 194, Methyl 3-(3-(4-(4-chlorophenoxy)phenoxy)azetidin-1-yl)-2-(1H-pyrrol-1-yl)benzoate], the inhibition at 50 µM was below 10%.
`O=C(O)c1cccc(N2CC(Oc3ccc(Oc4ccc(Cl)cc4)cc3)C2)c1-n1cccc1` [Example 195, 3-(3-(4-(4-chlorophenoxy)phenoxy)azetidin-1-yl)-2-(1H-pyrrol-1-yl)benzoic acid]: the inhibition at 50 µM lay in the range of 10 to 30%.
Turning to `COC(=O)c1cccc(N2CC(Oc3ccc(Oc4cccc(OC)c4)cc3)C2)c1-n1cccc1` [Example 196, Methyl 3-(3-(4-(3-methoxyphenoxy)phenoxy)azetidin-1-yl)-2-(1H-pyrrol-1-yl)benzoate], the inhibition at 50 µM is below 10%.
In the case of `COC(=O)c1cccc(N2CC(Oc3ccc(Oc4ccccc4)c(Cl)c3)C2)c1-n1cccc1` [Example 198, Methyl 3-(3-(3-chloro-4-phenoxyphenoxy)azetidin-1-yl)-2-(1H-pyrrol-1-yl)benzoate], the inhibition at 50 µM is below 10%.
